Literature values as cited in patent US8815303B2, “Multifunctional compositions having combined insecticidal, miticidal and fungicidal activity” (priority 2004, dated 2014).
Like-named read-outs stand apart in the source and are kept apart here.

Assays:
[1] = tested on: powdery mildew and/or blackspot; settings: for management of powdery mildew and/or blackspot: weekly sprays of 0.5% (w/w) aqueous solution
rose powdery mildew = settings: intact plants, after one adaxial foliar spray application
[2] = 0.5% concentration (the more effective dose)

| Structure (SMILES) | powdery mildew severity ([1]; 0.25% concentration) | powdery mildew severity [1, 2] | management of powdery mildew and/or blackspot [1] | host epidermal layers (rose powdery mildew) | superficial pathogen structures (rose powdery mildew) |
| --- | --- | --- | --- | --- | --- |
| O=C([O-])O.[Na+] [sodium bicarbonate] | significantly reduce | significantly reduce | significantly managed |  |  |
| O=C([O-])O.[K+] [potassium bicarbonate] | significantly reduce | significantly reduce | significantly managed | recover completely from infection | eradicated |
